From patent US8828925B2, “Etoposide and doxorubicin conjugates for drug delivery” (Angiochem Inc., priority 2008, dated 2014)
pIC50: −log10 of the molar value. Where two headings read alike, the source gives them in different places.

Experiments:
[1] = literature data (Reddy et al. 2005); cited from earlier work
[2] = test system: U87 cells; experiment: in vitro cell proliferation assay ([3H]-thymidine incorporation), U87; assay type: cell-based, human
Method: (§1) For the in vitro cell proliferation assay, between 2.5 and 5×10^4 of U87 or SK-HEP-1 cells were seeded in a 24 well tissue culture microplate in a final volume of 1 mL of medium with 10% serum and incubated for 24 hours at 37° C. and 5% CO2. The medium was then replaced with serum-free medium and incubated overnight. The next morning the agent was freshly dissolved in dimethyl sulfoxide (DMSO) and the medium was replaced with complete medium containing the agent at different concentrations in triplicate. The final concentration of DMSO was 0.1%. The control used was a microplate well with cells and without agent. The cells were incubated for 48 to 72 hrs at 37° C. and 5% CO2. After the incubation, the medium was changed and replaced with 1 mL of complete medium containing [^3H]-thymidine (1 pCi/assay). The plate was incubated at 37° C. and 5% CO2 for 4 hrs. The medium as removed, and the cells were washed with PBS at 37° C. The cells were fixed with a mix of ethanol:acetic acid (3:1), washed with water, and precipitated 3 times with 10% of ice-cold TCA (trichloroacetic acid). Finally 500 μL of PCA (perchloric acid) were added to the wells and the microplates were heated for 30 min at 65° C. and 30 min at 75° C. The contents of each well were then transferred to a scintillation vial with 10 mL of scintillation cocktail and the activity was measured in CPM (count per minute) on a liquid scintillation counter Tri-Carb from Packard.

[3] = test system: SK-HEP-1 cells
Method: as §1

[4] = test system: SK-HEP-1 cells; experiment: in vitro cell proliferation assay ([3H]-thymidine incorporation), SK-HEP-1
Method: as §1

[5] = test system: mouse brain; settings: in vivo
Method: (§2) The uptake of [^125I]-polypeptides to the luminal side of mouse brain capillaries was measured using the in situ brain perfusion method adapted in our laboratory for the study of agent uptake in the mouse brain.
(§3) Polypeptides were iodinated with standard procedures using iodo-beads from Sigma. Briefly polypeptides were diluted in 0.1 M phosphate buffer, pH 6.5 (PB). Two iodo-beads were used for each protein. These beads were washed twice with 3 mL of PB on a Whatman filter and re-suspended in 60 of PB. ^125I (1 mCi) from Amersham-Pharmacia biotech was added to the bead suspension for 5 min at room temperature. Each iodination was initiated by the addition of the polypeptide (100 μg). After an incubation of 10 min at room temperature, the free iodine was removed by HPLC.
(§4) Briefly, the right common carotid of ketamine/xylazine (140/8 mg/kg i.p.) anesthetized mice was exposed and ligated at the level of the bifurcation of the common carotid, rostral to the occipital artery. The common carotid was then catheterized rostrally with polyethylene tubing filled with heparin (25 U/mL) and mounted on a 26-gauge needle. The syringe containing the perfusion fluid ([^125I]-polypeptides or [^14C]-inulin in Krebs/bicarbonate buffer at a pH7.4 gassed with 95% O2 and 5% CO2) was placed in an infusion pump (Harvard pump PHD 2000; Harvard Apparatus) and connected to the catheter. Prior to the perfusion, the contralateral blood flow contribution was eliminated by severing heart ventricles. The brain was perfused for the indicated times at a flow rate of 1.15 mL/min. After 14.5 min of perfusion, the brain was further perfused for 60 seconds with Krebs buffer to wash the excess of [^125I]-proteins. Mice were then decapitated to terminate perfusion and the right hemisphere was isolated on ice before being subjected to capillary depletion. Aliquots of homogenates, supernatants, pellets and perfusates were taken to measure their contents in [^125I]-conjugates by TCA precipitation and to evaluate the apparent volume of distribution.

[6] = plasma kinetics after bolus administration; assay type: in vivo, CD-1 mice; settings: IV bolus, 20 mg/kg, mice
Method: FIG. 8 describes the plasma kinetics of Etop-An2(3:1) following administration as a bolus. Radiolabeled (^125I) Etop-An2 (20 mg/kg) was injected in bolus by intravenous (i.v.) or intraperitoneal (i.p.) routes in CD-1 mice weighing about 25-30 g. The injection solution was composed of 12.5% dimethylsulfoxide (DMSO), 12.5% anhydrous ethanol 25% polyethylene glycol 400 (PEG400) and 50% NaCl/Glycine buffer. At several time intervals (0.5, 1, 2, and 6 hours) the blood was collected by cardiac puncture and animals were sacrificed. After blood centrifugation, the plasma radioactivity was measured in a gamma counter (Wizard 1470 Automatic Gamma Counter). The radioactivity was interpreted as % of injected dose per gram of plasma. Results were plotted using GraphPad prism software and the area under the curve (AUC) for each injection mode was calculated. The bioavailability of intraperitoneal Etop-An2 conjugate was then estimated by dividing the AUC after i.p. injection by the AUC after i.v. injection.

[7] = tissue distribution after IV bolus; assay type: in vivo; settings: thirty minutes after IV bolus, mice, FIG. 12
Method: The effect of conjugation of an agent to a vector on distribution of the agent or the pharmacokinetics of a polypeptide that is conjugated to an agent was evaluated by administering a labeled polypeptide or conjugate to an animal and measuring distribution of the polypeptide or conjugate to organs (e.g., using ^3H or ^125I labeled conjugates) to mice. Similar experiments can be performed with compounds that include any of polypeptides described herein (e.g., the polypeptides described in Table 1 such as AngioPep-3, AngioPep-4a, AngioPep-4b, AngioPep-5, AngioPep-6, and AngioPep-7, or analogs thereof). Here, the unconjugated anticancer agent and the conjugates were injected intravenously to mice as a bolus. Tissues were collected at different times (0.25, 0.5, 1, and 4 hrs) and homogenized. To quantify the amount of ^3H-labeled conjugate, tissue homogenates were digested with tissue solubilizer, and 10 mL of liquid scintillator was added to samples. The amount of the ^125I labeled conjugate, in the different tissues is measured after TCA precipitation. Radioactivity associated with the tissues is quantified. The area under the curve (AUC 0-4) is estimated using the Prism software and is plotted for the different tissues.
FIG. 11 compares the brain distribution of Etop-An2(3:1) versus unconjugated etoposide thirty minutes after IV bolus administration to mice.

[8] = molecular target: P-gp (Mus musculus, UniProt P21447)
P-gp, sequence (P21447 whole entry): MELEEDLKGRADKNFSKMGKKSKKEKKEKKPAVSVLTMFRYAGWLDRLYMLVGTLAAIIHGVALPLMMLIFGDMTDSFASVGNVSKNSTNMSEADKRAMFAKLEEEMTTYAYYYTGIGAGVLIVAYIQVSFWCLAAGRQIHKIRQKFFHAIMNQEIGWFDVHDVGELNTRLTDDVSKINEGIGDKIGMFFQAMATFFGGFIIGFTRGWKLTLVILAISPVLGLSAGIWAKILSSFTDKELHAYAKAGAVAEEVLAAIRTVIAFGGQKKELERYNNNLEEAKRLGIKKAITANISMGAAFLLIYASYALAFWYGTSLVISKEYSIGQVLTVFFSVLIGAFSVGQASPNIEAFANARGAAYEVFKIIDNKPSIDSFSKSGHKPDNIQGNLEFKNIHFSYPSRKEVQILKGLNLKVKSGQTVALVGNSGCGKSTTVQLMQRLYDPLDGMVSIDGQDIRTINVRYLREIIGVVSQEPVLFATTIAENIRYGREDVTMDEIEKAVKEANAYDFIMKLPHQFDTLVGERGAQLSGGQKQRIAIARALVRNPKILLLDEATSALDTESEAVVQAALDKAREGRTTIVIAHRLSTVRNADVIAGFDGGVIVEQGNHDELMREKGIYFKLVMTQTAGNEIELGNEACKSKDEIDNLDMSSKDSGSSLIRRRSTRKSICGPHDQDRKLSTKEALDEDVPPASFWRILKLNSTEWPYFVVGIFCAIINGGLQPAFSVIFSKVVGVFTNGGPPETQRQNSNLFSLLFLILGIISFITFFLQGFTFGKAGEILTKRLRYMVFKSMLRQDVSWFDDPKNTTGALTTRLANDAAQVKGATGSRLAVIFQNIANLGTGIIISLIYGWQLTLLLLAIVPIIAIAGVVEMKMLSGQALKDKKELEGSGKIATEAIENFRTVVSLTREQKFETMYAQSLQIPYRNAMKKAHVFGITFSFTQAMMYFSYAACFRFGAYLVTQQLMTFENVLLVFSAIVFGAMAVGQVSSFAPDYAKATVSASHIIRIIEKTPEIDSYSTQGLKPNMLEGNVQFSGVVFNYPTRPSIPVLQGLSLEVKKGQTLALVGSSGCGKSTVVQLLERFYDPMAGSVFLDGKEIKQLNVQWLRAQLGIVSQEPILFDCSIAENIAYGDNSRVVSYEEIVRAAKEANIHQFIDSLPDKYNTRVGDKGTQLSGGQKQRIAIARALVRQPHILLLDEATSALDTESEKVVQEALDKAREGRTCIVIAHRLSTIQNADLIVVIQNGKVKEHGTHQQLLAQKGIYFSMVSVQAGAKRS
Method: as §2
Briefly, the right common carotid of ketamine/xylazine (140/8 mg/kg i.p.) anesthetized mice was exposed and ligated at the level of the bifurcation of the common carotid, rostral to the occipital artery. The common carotid was then catheterized rostrally with polyethylene tubing filled with heparin (25 U/mL) and mounted on a 26-gauge needle. The syringe containing the perfusion fluid ([^125I]-polypeptides or [^14C]-inulin in Krebs/bicarbonate buffer at a pH7.4 gassed with 95% O2 and 5% CO2) was placed in an infusion pump (Harvard pump PHD 2000; Harvard Apparatus) and connected to the catheter. Prior to the perfusion, the contralateral blood flow contribution was eliminated by severing heart ventricles. The brain was perfused for the indicated times at a flow rate of 1.15 mL/min. After 14.5 min of perfusion, the brain was further perfused for 60 seconds with Krebs buffer to wash the excess of [^125I]-proteins. Mice were then decapitated to terminate perfusion and the right hemisphere was isolated on ice before being subjected to capillary depletion. […]

[9] = test system: Lung Carcinoma (NCI-H460); experiment: in vitro cell proliferation assay, NCI-H460; assay type: cell-based; settings: Table 5
[10] = test system: mouse brain; experiment: in situ brain perfusion (brain uptake)
Method: as §2, §3, §4

[11] = test system: U87 cells in nude mice brain; experiment: intracerebral human brain tumor model (U87), survival; assay type: in vivo; settings: doxorubicin 6 mg/kg, (DoxSu)3-An2 40 mg/kg i.v. 1× per week
Method: The intracerebral human brain tumor model was established by stereotactic inoculation of 5×10^5 U87 cells in nude mice brain. Female athymic nude mice (Crl:Nu/Nu-nuBR; 20-25 g, 4-6 weeks old; Charles River Canada, St-Constant, QC) were used for tumor models and were maintained in a pathogen-free environment. One hour before surgery, mice received a subcutaneous injection of buprenorphine (0.1 mg kg^−1). For tumor cell inoculation, mice were anesthetized by i.p. injection of ketamine/xylazine (120/10 mg kg^−1) and placed in a stereotactic apparatus (Kopf; Tujunga, Calif.). A burr hole was drilled 1.5 mm anterior and 2.5 mm lateral to the bregma. The cell suspension in 5 μL of serum free cell culture medium was injected over a 5 minute period using a Hamilton syringe at a depth of 3.5 mm.
Drug treatment started 3 days post-inoculation (Table 8). […] Drug solutions were prepared in dextrose 5% water (D5W). Injection solutions were freshly prepared before each administration. Clinical signs of disease progression and body weights were monitored everyday. When mice reached terminal endpoints (20% of decrease in body weight), they were sacrificed by carbon dioxide asphyxiation.

[12] = Homo sapiens, U-87 MG, Table 5, incubation 48 to 72 hrs, read-out: IC50 (nM) Glioblastoma (U87)
[13] = Homo sapiens, SK-HEP1, read-out: IC50 (nM) Hepatocarcinoma (SK-Hep-1)

Question: With `COc1cc([C@@H]2c3cc4c(cc3[C@@H](O[C@@H]3O[C@@H]5CO[C@@H](C)O[C@H]5[C@H](O)[C@H]3O)[C@H]3COC(=O)[C@H]23)OCO4)cc(OC)c1O` [Etoposide] as the compound, how does the T1/2α [1] read?
Answer: 7.8 min

Question: And the IC50 ([2]; Homo sapiens, U-87 MG, U-87 Cells, 24 hours, read-out: IC50 (nM) 24 hours)?
Answer: 160 nM

Question: What about the IC50 ([2]; Homo sapiens, U-87 MG, U-87 Cells, 48 hours, read-out: IC50 (nM) 48 hours) of the same compound?
Answer: 221 nM

Question: And the IC50 ([2]; Homo sapiens, U-87 MG, U-87 Cells, 72 hours, read-out: IC50 (nM) 72 hours)?
Answer: 145 nM

Question: And the pIC50 [3]?
Answer: 7.25

Question: And the IC50 ([4]; Homo sapiens, SK-HEP1, 24 h, read-out: IC50 (nM) 24 hours)?
Answer: 116 nM

Question: And the IC50 ([4]; Homo sapiens, SK-HEP1, 72 h, read-out: IC50 (nM) 72 hours)?
Answer: 50 nM

Question: What does the source list for `COc1cc([C@@H]2c3cc4c(cc3[C@@H](O[C@@H]3O[C@@H]5CO[C@@H](C)O[C@H]5[C@H](O)[C@H]3OC(=O)CCCC(=O)NCCCC[C@H](NC(=O)CNC(=O)[C@H](CCCNC(=N)N)NC(=O)[C@H](CO)NC(=O)CNC(=O)CNC(=O)[C@H](Cc3ccc(O)cc3)NC(=O)[C@H](Cc3ccccc3)NC(=O)[C@H](Cc3ccccc3)NC(=O)[C@@H](NC(=O)CCCC(=O)O[C@H]3[C@H](O[C@@H]5c6cc7c(cc6[C@@H](c6cc(OC)c(O)c(OC)c6)[C@H]6C(=O)OC[C@@H]65)OCO7)O[C@@H]5CO[C@@H](C)O[C@H]5[C@@H]3O)[C@@H](C)O)C(=O)N[C@@H](CCCNC(=N)N)C(=O)N[C@@H](CC(N)=O)C(=O)N[C@@H](CC(N)=O)C(=O)N[C@@H](Cc3ccccc3)C(=O)N[C@@H](CCCCNC(=O)CCCC(=O)O[C@H]3[C@H](O[C@@H]5c6cc7c(cc6[C@@H](c6cc(OC)c(O)c(OC)c6)[C@H]6C(=O)OC[C@@H]65)OCO7)O[C@@H]5CO[C@@H](C)O[C@H]5[C@@H]3O)C(=O)N[C@H](C(=O)N[C@@H](CCC(=O)O)C(=O)N[C@@H](CCC(=O)O)C(=O)N[C@@H](Cc3ccc(O)cc3)C(=O)O)[C@@H](C)O)[C@H]3COC(=O)[C@H]23)OCO4)cc(OC)c1O` [Etop-An2(3:1), ((2″-Glutaryl)-Etop)3-(Angiopep2)]?
Answer: Vd (slope) relative to the corresponding unconjugated drug [5]: higher; AUC0-∞ (hr°μg/mL) [6]: 82 hr°μg/mL; Elim. Rate Const. [6]: 1.6 h⁻¹; T1/2α [6]: 25.8 min; IC50 ([2]; U-87 Cells, 24 hours, read-out: IC50 (nM) 24 hours): 453 nM; IC50 ([2]; U-87 Cells, 48 hours, read-out: IC50 (nM) 48 hours): 151 nM; IC50 ([2]; U-87 Cells, 72 hours, read-out: IC50 (nM) 72 hours): 164 nM; pIC50 [3]: 7.23; concentration in the tissues studied versus unconjugated etoposide [7]: increased concentration in the tissues studied; IC50 ([4]; read-out: IC50 (nM) 24 hours, SK-HEP-1, 24 hours): 160 nM; IC50 ([4]; read-out: IC50 (nM) 72 hours, SK-HEP-1, 72 hours): 52 nM; P-gp substrate status [8]: not a P-gp substrate

Question: With “(Etoposide-4′-Dimethylglycine-2″-Glutaric)3-Angiopep-2 Conjugate [EtopDMG-An2(3:1)]” as the compound, how does the IC50 [9] read?
Answer: 148 nM

Question: What about the IC50 ([2]; Table 5, incubation 48 to 72 hrs, read-out: IC50 (nM) Glioblastoma (U87)) of the same compound?
Answer: 330 nM

Question: What about the IC50 ([4]; read-out: IC50 (nM) Hepatocarcinoma (SK-Hep-1), Table 5, incubation 48 to 72 hrs) of the same compound?
Answer: 48 nM

Question: With `COc1cc(C2c3cc4c(cc3[C@@H](O[C@@H]3O[C@@H]5CO[C@@H](C)O[C@H]5[C@H](O)[C@H]3O)[C@H]3COC(=O)[C@H]23)OCO4)cc(OC)c1OC(=O)CN(C)C` (stereo partly drawn) [EtopDMG, Etoposide 4′-Dimethylglycine] as the compound, how does the “Brain Kin” value [10] read?
Answer: 9e-05 mL/s/g

Question: And the IC50 ([9]; Homo sapiens, NCI-H460)?
Answer: 90 nM

Question: What about the IC50 [2, 12] of the same compound?
Answer: 145 nM

Question: And the IC50 [4, 13]?
Answer: 62 nM

Question: What does the source list for `COc1cccc2c1C(=O)c1c(O)c3c(c(O)c1C2=O)C[C@@](O)(C(=O)CO)C[C@@H]3O[C@H]1C[C@H](N)[C@H](O)[C@H](C)O1` [Doxorubicin, doxorubicin]?
Answer: Brain Kin ([5]; pH 7.4): 0.00028 mL/s/g; IC50 ([9]; Homo sapiens, NCI-H460): 11 nM; IC50 [2, 12]: 18 nM; Survival (days) Mean Trial 1 ([11]; Trial 1): 20.6 days; Survival (days) Median Trial 1 ([11]; Trial 1, treatment from 3 days post-inoculation): 21 days; Survival (days) Median Trial 2 ([11]; Trial 2): 23 days; IC50 [4, 13]: 10 nM
